Test results from US4265901A, “2-Oxybenzimidazoline compounds” (priority 1979, dated 1981).
Counter-ions that a name gives are not always drawn.

Columns and labels:
blowfly larvae [1] = assay: Efficacy against blowfly larvae, calves subcutaneous pellets (Example 20); type: in vivo; details: Phormia regina, sc, test day per line
Experimental: (§1) Representative compounds of the present invention were evaluated against larvae of blowfly (Phormia regina) and against adult housefly (Musca domestica). In these evaluations, the candidate compound was administered to each of two male guinea pigs weighing from about 400 grams to about 1000 grams. Administration was via the intraperitoneal route, the compound having been formulated in sesame oil. At twenty-four hours following administration of the compound, blood was withdrawn from the guinea pigs. The serum portion was isolated and blowfly larvae and adult houseflies were fed on the serum. For the blowfly assay, 10 ml. of serum were placed in a test tube with a wick onto which 50 blowfly larvae were placed. The covered test tube was incubated at 27° C. for 24 hours, at which time efficacy of the candidate compound was determined as the percent mortality of the blowfly larvae, adjusted by normal mortality in a control, and reported according to the following rating scale:
The compound of Example 2, 2-hydroxy-2-(1,1,2,2-tetrafluoroethyl)-4-nitro-6-(trifluoromethyl)benzimidazoline sodium salt, was formulated neat into tablets, each containing about 85 mg. of compound. […]
(§2) As described in preceding examples, blood samples were withdrawn and analyzed for the concentration of the compound in the blood and percent efficacy against adult housefly and blowfly larvae.

adult housefly [2] = assay: Efficacy against adult housefly, calves subcutaneous pellets (Example 20); type: in vivo, Musca domestica; details: Musca domestica, sc, test day per line
Experimental: (§3) For the adult housefly test, 10 ml. of serum were employed to saturate a wick which was placed in a petri dish. Twenty-five chilled houseflies were placed in the dish which was then incubated for 24 hours at 27° C. and 50% relative humidity. After the end of the twenty-four hours, the efficacy of the candidate compound was determined as the percent mortality of housefly, adjusted as for blowfly by normal mortality in a control and reported according to the same scale as above.
The compound of Example 2, 2-hydroxy-2-(1,1,2,2-tetrafluoroethyl)-4-nitro-6-(trifluoromethyl)benzimidazoline sodium salt, was formulated neat into tablets, each containing about 85 mg. of compound.
These pellets were implanted in the right shoulder area of two calves, weighing 400 and 373 kilograms respectively, to supply a dose of about 5 mg./kg. (animals #651 and 1511, respectively). Another calf (animal #656) was maintained as a control and two additional calves weighing 336 and 350 kilograms (animals #654 and 655, respectively) received pellets of 2-(1,1,2,2-tetrafluoroethyl)-4-nitro-6-(trifluoromethyl)benzimidazole, to supply a dose of about 5 mg./kg. of compound.
as §2

guinea pigs = assay: Mortality of guinea pigs after intraperitoneal dosing; type: in vivo, guinea pig; details: for death of guinea pigs: two animals
Experimental: as §1, with “scale: […]” for “scale:”

blowfly larvae [3] = assay: Blowfly larvae fed on serum of dosed guinea pigs; type: in vivo, Phormia regina; details: guinea pig, serum at 24 hours
Experimental: as §1
(§4) Percent mortality was determined separately for each guinea pig.

adult housefly [4] = assay: Adult houseflies fed on serum of dosed guinea pigs; type: in vivo, Musca domestica; details: guinea pig, serum at 24 hours
Experimental: as §1, §4, §3

calf = assay: Tolerability in calves (Example 19); type: in vivo
Experimental: The compound of Example 3, 2-hydroxy-2,6-bis(trifluoromethyl)-4-nitrobenzimidazoline, sodium salt was evaluated as an ectoparasiticide when administered as pellets implanted in the ear of a calf numbered animal 106. The compound was formulated neat, in tablets about 1/8" thick. A total of 14 pellets was inserted into the left ear of a 215-kilogram calf, to supply a dose of about 5 mg./kg. […] Two other calves received intramuscular injections of aqueous solutions of 2-hydroxy-2,6-bis(trifluoromethyl)-4-nitrobenzimidazoline, sodium salt, to provide 5 or 7.5 mg./kg. of animal body weight. (animals 119 and 121 respectively). […] A control animal was also maintained throughout the test period.

[5] = CRC Handbook of Chemistry and Physics; cited from earlier work
[6] = calf 654, pellets about 5 mg./kg.
[7] = calf 655, pellets about 5 mg./kg.

O=[N+]([O-])c1cc(C(F)(F)F)cc2nc(C(F)(F)C(F)F)[nH]c12 [2-(1,1,2,2-tetrafluoroethyl)-4-nitro-6-(trifluoromethyl)benzimidazole, reference compound]
Emax at 5 mg/kg (blowfly larvae [1]; [6]): 100% | Emax at 5 mg/kg (blowfly larvae [1]; [7]): 100% | Emax at 5 mg/kg (adult housefly [2]; [6]): 100% | Emax at 5 mg/kg (adult housefly [2]; [7]): 100%

O=[N+]([O-])c1cc(C(F)(F)F)cc2c1NC(O)(C(F)(F)C(F)F)N2 (centres unmarked) [Example 6, 2-Hydroxy-2-(1,1,2,2-Tetrafluoroethyl)-4-Nitro-6-(Trifluoromethyl)Benzimidazoline, Calcium Salt]
death of guinea pig (guinea pigs; 5 mg./kg. i.p., one of two animals): Guinea pig died | Efficacy Rating, Blowfly Larvae (blowfly larvae [3]; 5 mg./kg. i.p.): 5 (100% dead) | Efficacy Rating, Blowfly Larvae (blowfly larvae [3]; 10 mg./kg. i.p., Calcium Salt): 5 (100% dead) | Efficacy Rating, Adult Housefly (adult housefly [4]; 5 mg./kg. i.p.): 5 (100% dead) | Efficacy Rating, Adult Housefly (adult housefly [4]; 10 mg./kg. i.p., Calcium Salt): 5 (100% dead)

O=[N+]([O-])c1cc(C(F)(F)F)cc2c1NC(O)(C(F)(F)C(F)F)N2 (centres unmarked) [Example 7, 2-Hydroxy-2-(1,1,2,2-Tetrafluoroethyl)-4-Nitro-6-(Trifluoromethyl)Benzimidazoline, Silver Salt]
death of guinea pigs (guinea pigs; 25 mg./kg. i.p.): guinea pigs died | death of guinea pigs (guinea pigs; 50 mg./kg. i.p.): guinea pigs died

O=[N+]([O-])c1cc(C(F)(F)F)cc2c1NC(O)(C(F)(F)F)N2 (centres unmarked) [Example 3, 2-Hydroxy-2,6-Bis(Trifluoromethyl)-4-Nitrobenzimidazoline, Sodium Salt, Monohydrate]
swelling post-insertion (calf; calf 106, 14 ear pellets, about 5 mg./kg., 6 hours and 1 day): Some swelling was noted | death of calf (calf; calf 121, 7.5 mg./kg. intramuscular): found dead on day 2

N [Ammonia, ammonia]
Kb [5]: 1.79×10^-5

O=[N+]([O-])c1cc(C(F)(F)F)cc2c1NC(O)(C(F)(F)C(F)F)N2 (centres unmarked) [Example 8, 2-Hydroxy-2-(1,1,2,2-Tetrafluoroethyl)-4-Nitro-6-(Trifluoromethyl)Benzimidazoline, Lithium Salt]
death of guinea pigs (guinea pigs; 20 mg./kg. i.p.): Both guinea pigs died | Efficacy Rating, Blowfly Larvae (blowfly larvae [3]; 5 mg./kg. i.p.): 5 (100% dead) | Efficacy Rating, Adult Housefly (adult housefly [4]; 5 mg./kg. i.p.): 5 (100% dead)

CC(C)OC1(C(F)(F)C(F)F)Nc2cc(C(F)(F)F)cc([N+](=O)[O-])c2N1 (centres unmarked) [Example 4, 2-Isopropoxy-2-(1,1,2,2-Tetrafluoroethyl)-4-Nitro-6-(Trifluoromethyl)Benzimidazoline, Potassium Salt]
death of guinea pigs (guinea pigs; 10 mg./kg. i.p.): Both guinea pigs died | Efficacy Rating, Blowfly Larvae (blowfly larvae [3]; 5 mg./kg. i.p.): 5 (100% dead) | Efficacy Rating, Adult Housefly (adult housefly [4]; 5 mg./kg. i.p.): 5 (100% dead)
